# Measured values reported in patent US20240294499A1, “TARGETED PROTEIN DEGRADATION USING BIFUNCTIONAL COMPOUNDS THAT BIND UBIQUITIN LIGASE AND TARGET MCL-1 PROTEIN” (Captor Therapeutics S.A., priority 2021, published 2024).
# Legend:
# [1] = target: [MCL-1]-[compound of formula (I)]-[CRBN/DDB1] complex (Homo sapiens, UniProt Q07820+Q96SW2); test: AlphaLISA dose response ternary complex formation assay; type: binding; details: for EC50: read-out: AlphaLISA dose response Average pEC50 by molecule (converted)
# [MCL-1]-[compound of formula (I)]-[CRBN/DDB1] complex, sequence (Q07820 whole entry): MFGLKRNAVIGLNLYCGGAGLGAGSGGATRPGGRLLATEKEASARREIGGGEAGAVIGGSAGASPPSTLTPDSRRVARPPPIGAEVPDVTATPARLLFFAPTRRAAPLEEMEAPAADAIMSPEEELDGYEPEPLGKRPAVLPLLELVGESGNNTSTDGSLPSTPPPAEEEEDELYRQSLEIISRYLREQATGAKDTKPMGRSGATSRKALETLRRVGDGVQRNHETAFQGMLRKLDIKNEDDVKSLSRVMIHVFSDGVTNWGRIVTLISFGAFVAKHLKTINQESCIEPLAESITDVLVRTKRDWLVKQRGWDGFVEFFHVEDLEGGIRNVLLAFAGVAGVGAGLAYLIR
# [MCL-1]-[compound of formula (I)]-[CRBN/DDB1] complex, sequence (Q96SW2 whole entry): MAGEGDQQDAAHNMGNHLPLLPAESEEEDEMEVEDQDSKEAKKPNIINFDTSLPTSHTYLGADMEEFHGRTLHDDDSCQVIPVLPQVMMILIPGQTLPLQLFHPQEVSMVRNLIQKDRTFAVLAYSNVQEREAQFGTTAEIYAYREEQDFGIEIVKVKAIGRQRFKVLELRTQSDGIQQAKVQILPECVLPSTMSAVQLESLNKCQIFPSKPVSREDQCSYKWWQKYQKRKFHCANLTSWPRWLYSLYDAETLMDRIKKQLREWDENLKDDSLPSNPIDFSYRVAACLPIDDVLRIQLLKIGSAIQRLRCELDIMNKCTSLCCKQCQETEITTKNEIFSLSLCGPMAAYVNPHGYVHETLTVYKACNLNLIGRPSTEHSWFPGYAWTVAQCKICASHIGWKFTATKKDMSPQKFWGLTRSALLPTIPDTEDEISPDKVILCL
# [MCL-1]-[compound of formula (I)]-[CRBN/DDB1] complex, sequence (Q16531 whole entry partner): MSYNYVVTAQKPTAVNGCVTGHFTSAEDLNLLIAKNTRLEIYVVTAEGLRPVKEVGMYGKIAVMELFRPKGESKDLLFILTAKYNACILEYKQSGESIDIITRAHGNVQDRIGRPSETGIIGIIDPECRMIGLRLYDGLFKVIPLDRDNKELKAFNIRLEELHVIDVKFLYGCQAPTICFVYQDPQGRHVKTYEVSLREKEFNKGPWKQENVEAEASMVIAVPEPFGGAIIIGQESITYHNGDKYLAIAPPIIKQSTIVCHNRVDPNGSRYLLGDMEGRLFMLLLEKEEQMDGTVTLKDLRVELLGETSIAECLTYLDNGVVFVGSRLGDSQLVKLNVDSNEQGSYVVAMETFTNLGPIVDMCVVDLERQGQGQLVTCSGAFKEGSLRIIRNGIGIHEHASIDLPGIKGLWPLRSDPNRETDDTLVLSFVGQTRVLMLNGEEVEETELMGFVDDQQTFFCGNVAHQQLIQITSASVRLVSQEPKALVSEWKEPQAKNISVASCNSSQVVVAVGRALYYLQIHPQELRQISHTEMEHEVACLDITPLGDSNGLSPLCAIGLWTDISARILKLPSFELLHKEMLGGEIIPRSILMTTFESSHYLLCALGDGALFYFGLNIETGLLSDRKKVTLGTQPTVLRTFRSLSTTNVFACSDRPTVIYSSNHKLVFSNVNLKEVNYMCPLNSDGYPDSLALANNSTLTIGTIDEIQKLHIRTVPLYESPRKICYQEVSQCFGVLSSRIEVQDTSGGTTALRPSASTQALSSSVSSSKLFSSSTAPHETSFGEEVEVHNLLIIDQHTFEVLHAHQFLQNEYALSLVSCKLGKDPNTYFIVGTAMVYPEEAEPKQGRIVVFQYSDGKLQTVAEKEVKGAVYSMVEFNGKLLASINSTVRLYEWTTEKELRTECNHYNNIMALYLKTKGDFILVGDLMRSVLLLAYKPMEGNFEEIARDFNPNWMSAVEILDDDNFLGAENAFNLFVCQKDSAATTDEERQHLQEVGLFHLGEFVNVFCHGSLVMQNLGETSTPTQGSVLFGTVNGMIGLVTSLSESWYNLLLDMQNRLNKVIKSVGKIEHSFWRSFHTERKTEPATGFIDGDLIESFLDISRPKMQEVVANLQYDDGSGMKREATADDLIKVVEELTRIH
# In short: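 EC50 comes from dose–response of AlphaLISA luminescence (excitation 680, emission 615 nm), normalised between DMSO background and an internal positive control, with concentrations past the hook point dropped. Ternary complex formed by mixing bead-bound biotin-hMCL-1 and His-CRBN/DDB1 (protein solutions 40 and 200 nM) with compound in 2% DMSO, 30 min, 25 °C.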
# MV-4-11 cells = test: Cell viability assay (CellTiter-Glo), MV-4-11; type: cell-based; details: 1% FBS; for IC50: Homo sapiens, MV4-11, 24 hours incubation, read-out: Average pIC50 by molecule MV-4-11 (converted)
# In short: (§1)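 OPM-2, MV-4-11 and ARH-77 cells were grown in medium with 1% FBS and treated with compound in 1/3 dilutions from 30 uM (9–12 points, 0.5% DMSO). Viability was read by CellTiter-Glo luminescence after 24 hours and normalized to DMSO control.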
# MCL-1 protein = MCL-1 protein (Homo sapiens, UniProt Q07820); test: OPM-2 cells: MCL-1 protein degradation, Simple Western; type: cell-based; parameters: endogenous in cells; host or cells: OPM-2; details: OPM-2 cell line, 6 h treatment, 100 nM compound, vs DMSO
# MCL-1 protein, sequence (Q07820 whole entry): as the sequence (Q07820 whole entry) above
# From the text: The effect of various compounds of the invention and the reference compounds on MCL-1protein degradation in the OPM-2 cell line was investigated, using the degradation assay protocol below.
# OPM-2 cells were maintained in RPMI-1640 medium, supplemented with penicillin/streptomycin and 10% Fetal Bovine Serum (FBS). During the treatment, FBS concentration was reduced to 1%.
# Compound stocks were pre-diluted in DMSO and added directly to the cells growth medium (final DMSO concentration: 0.5%).
# OPM-2 cells were collected, centrifuged (250 rcf, 5 min), resuspended in a growth medium containing 1% FBS and counted. The cell suspension was then adjusted to 1×10^6 cell/ml using a growth medium containing 1% FBS. Afterwards, 0.5×10^6 cells were seeded on 24-well plates in 0.5 mL of medium per well. Immediately after seeding cells, compounds in appropriate concentrations were added to the cell culture medium.
# Following the treatment with the compounds, cells were collected from the plates and suspended in a lysis buffer (2% SDS, 50 mM Tris, pH 8.0, 100 U/ml Pierce Universal Nuclease for Cell Lysis, cOmplete EDTA-free Protease Inhibitor Cocktail) and incubated on ice for 45 min.
# The following steps, including sample loading, protein separation, immunoprobing or labelling, washes and detection analysis was performed using Jess from ProteinSimple, an automatic system for analyzing protein levels in cell lysates (12-230 kDa Jess or Wes separation module 8×25 capillaries, protein normalization assay, no. SM-PN01-1). The Protein of Interest was detected using MCL-1 (D35A5) Rabbit monoclonal antibody (Cell Signaling, #5453, LOT: 4). Antibody was diluted in a ratio of 1:100 in Antibody diluent.
# [%] of protein reduction is calculated in comparison to the cells treated with DMSO, which stand for 0%.
# The results for the 6 h treatment with 100 nM compounds are shown in Table 9, using the following labels: • <20% for 0-19% of MCL-1 protein reduction, • ≥20% for 20-39% of MCL-1 protein reduction, • ≥40% for 40-100% of MCL-1 protein reduction.
# ARH-77 cells = test: Cell viability assay (CellTiter-Glo), ARH-77; type: cell-based; details: 1% FBS; for IC50: Homo sapiens, ARH-77, 24 hours incubation, read-out: Average pIC50 by molecule ARH-77 (converted)
# In short: as §1
# DMS 114 cells = test: Cell viability assay (CellTiter-Glo), DMS 114; type: cell-based; details: 72 hours incubation, 10% FBS; for IC50: Homo sapiens, DMS-114, 72 h, read-out: Average pIC50 by molecule DMS 114 (converted)
# From the text: The effect of various compounds of the invention on the viability of DMS 114 cell line was investigated, using the CTG protocol described below.
# DMS 114 cell line is derived from small-cell lung cancer, which is described in the literature as MCL-1 dependent lines [Yasuda Y et al. Cell Death & Disease 2020; 11: 177].
# DMS 114 cells were detached with trypsin and then resuspended in growth medium containing 10% FBS and counted. Cell suspension was then adjusted to 5×10^4 cells/ml using growth medium containing 10% FBS. Afterwards, […] were seeded on 384-well plates (50 μl). Plates were then placed in the incubator overnight until treated. Next day, compounds were added using ECHO 555 liquid handler. Compound concentrations used in this assay: 1/3 dilutions starting at 30 uM (9 to 12 points).
# After 72 hours of incubation, cell viability was evaluated using CellTiter-Glo Luminescent Cell Viability Assay (Promega, cat #G7572). Luminescence signal was measured using a CLARIOstar Plus Multi-Mode Microplate Reader (574-590 nm).
EC50 [1] [nM],IC50 (MV-4-11 cells) [nM],"Simple Western, % of protein reduction (MCL-1 protein) [%]",Compound,IC50 (ARH-77 cells) [nM],IC50 (DMS 114 cells) [nM],further results
< 100,≤ 1000,≥40,"Cc1ccc2c(CCCOc3cccc4ccccc34)c(C(=O)O)n(CCN3CCN(C(=O)COc4cccc5c4C(=O)N(C4CCC(=O)NC4=O)C5=O)CC3)c2c1-c1c(C)nn(C)c1C (stereo not drawn) [Compound 217, 1-(2-(4-(2-((2-(2,6-dioxopiperidin-3-yl)-1,3-dioxoisoindolin-4-yl)oxy)acetyl)piperazin-1-yl)ethyl)-6-methyl-3-(3-(naphthalen-1-yloxy)propyl)-7-(1,3,5-trimethyl-1H-pyrazol-4-yl)-1H-indole-2-carboxylic acid]",,,
< 1000,,≥20,"Cc1nn(C)c(COc2ccc(N3CCN(S(=O)(=O)N(C)C)CC3)cc2)c1-c1cccc2c(CCCOc3cccc4ccccc34)c(C(=O)O)n(CCN3CCN(C(=O)CNc4cccc5c4C(=O)N(C4CCC(=O)NC4=O)C5=O)CC3)c12 (stereo not drawn) [Compound 245, 7-(5-((4-(4-(N,N-dimethylsulfamoyl)piperazin-1-yl)phenoxy)methyl)-1,3-dimethyl-1H-pyrazol-4-yl)-1-(2-(4-((2-(2,6-dioxopiperidin-3-yl)-1,3-dioxoisoindolin-4-yl)glycyl)piperazin-1-yl)ethyl)-3-(3-(naphthalen-1-yloxy)propyl)-1H-indole-2-carboxylic acid]",,,
< 100,≤ 316,≥40,"Cc1nn(C)c(C)c1-c1c(F)ccc2c(CCCOc3cccc4ccccc34)c(C(=O)O)n(CCN3CCN(C(=O)COc4cccc5c4C(=O)N(C4CCC(=O)NC4=O)C5=O)CC3)c12 (stereo not drawn) [Compound 213, 1-{2-[4-(2-{[2-(2,6-dioxopiperidin-3-yl)-1,3-dioxo-2,3-dihydro-1H-isoindol-4-yl]oxy}acetyl)piperazin-1-yl]ethyl}-6-fluoro-3-[3-(naphthalen-1-yloxy)propyl]-7-(1,3,5-trimethyl-1H-pyrazol-4-yl)-1H-indole-2-carboxylic acid]",> 10000,,
< 100,≤ 31.6,,"Cc1nn(C)c(C)c1-c1c(Cl)ccc2c(CCCOc3cccc4cc(F)ccc34)c(C(=O)O)n(CCN3CCN(C(=O)[C@H](C)Oc4cccc5c4C(=O)N([C@H]4CCC(=O)NC4=O)C5=O)CC3)c12 (single isomer, unassigned) [Compound 319]",> 10000,≤ 3160,
< 100,≤ 100,,"Cc1nn(C)c(C)c1-c1c(Cl)ccc2c(CCCOc3cccc4cc(F)ccc34)c(C(=O)O)n(CCN3CCN(C(=O)Cn4c(C)nc5c(C(=O)NC6CCC(=O)NC6=O)cc(F)cc54)CC3)c12 (stereo not drawn) [Compound 278, 6-Chloro-1-{2-[4-(2-{4-[(2,6-dioxopiperidin-3-yl)carbamoyl]-6-fluoro-2-methyl-1H-1,3-benzodiazol-1-yl}acetyl)piperazin-1-yl]ethyl}-3-{3-[(6-fluoronaphthalen-1-yl)oxy]propyl}-7-(1,3,5-trimethyl-1H-pyrazol-4-yl)-1H-indole-2-carboxylic acid]",> 10000,≤ 3160,
< 100,≤ 1000,≥20,"Cc1nn(C)c(COc2ccc(N3CCN(S(=O)(=O)N(C)C)CC3)cc2)c1-c1cccc2c(CCCOc3cccc4ccccc34)c(C(=O)O)n(CCN3CCN(C(=O)COc4cccc5c4CN(C4CCC(=O)NC4=O)C5=O)CC3)c12 (stereo not drawn) [Compound 249, 7-(5-((4-(4-(N,N-dimethylsulfamoyl)piperazin-1-yl)phenoxy)methyl)-1,3-dimethyl-1H-pyrazol-4-yl)-1-(2-(4-(2-((2-(2,6-dioxopiperidin-3-yl)-1-oxoisoindolin-4-yl)oxy)acetyl)piperazin-1-yl)ethyl)-3-(3-(naphthalen-1-yloxy)propyl)-1H-indole-2-carboxylic acid]",,,
,,≥20,"Cc1c(-c2c(-c3ccc(F)o3)sc3ncnc(O[C@H](Cc4ccccc4OCc4ccnn4CC(F)(F)F)C(=O)NS(=O)(=O)CCNC(=O)CCOCCOCCNc4cccc5c4C(=O)N(C4CCC(=O)NC4=O)C5=O)c23)ccc(OCCN2CCN(C)CC2)c1Cl (stereo partly drawn) [Compound 260, (2R)-2-[(5-{3-chloro-2-methyl-4-[2-(4-methylpiperazin-1-yl)ethoxy]phenyl}-6-(5-fluorofuran-2-yl)thieno[2,3-d]pyrimidin-4-yl)oxy]-N-(2-{3-[2-(2-{[2-(2,6-dioxopiperidin-3-yl)-1,3-dioxo-2,3-dihydro-1H-isoindol-4-yl]amino}ethoxy)ethoxy]propanamido}ethanesulfonyl)-3-(2-{[1-(2,2,2-trifluoroethyl)-1H-pyrazol-5-yl]methoxy}phenyl)propanamide]",,,
,,≥20,"Cc1nc2c(C(=O)NC3CCC(=O)NC3=O)c(OCC(=O)N3CCN(CCn4c(C(=O)O)c(CCCOc5cccc6ccccc56)c5ccc(Cl)c(-c6c(C)nn(C)c6C)c54)CC3)ccc2[nH]1 (stereo not drawn) [Compound 264, 6-chloro-1-(2-(4-(2-((4-((2,6-dioxopiperidin-3-yl)carbamoyl)-2-methyl-1H-benzo[d]imidazol-5-yl)oxy)acetyl)piperazin-1-yl)ethyl)-3-(3-(naphthalen-1-yloxy)propyl)-7-(1,3,5-trimethyl-1H-pyrazol-4-yl)-1H-indole-2-carboxylic acid]",,,
,,,"Cc1nn(C)c(C)c1-c1c(Cl)ccc2c(CCCOc3cccc4cc(F)ccc34)c(C(=O)O)n(CCN3CCN(C(=O)COc4cccc5c4CN(C4CCC(=O)NC4=O)C5=O)CC3)c12 (atropisomer, axis not shown; (Ra)) [Compound 294, (Ra)-6-Chloro-1-(2-(4-(2-((2-(2,6-dioxopiperidin-3-yl)-1-oxoisoindolin-4-yl)oxy)acetyl)piperazin-1-yl)ethyl)-3-(3-((6-fluoronaphthalen-1-yl)oxy)propyl)-7-(1,3,5-trimethyl-1H-pyrazol-4-yl)-1H-indole-2-carboxylic acid]",,,AlphaLISA dose response Average pEC50 by molecule [1]: >7; Average pIC50 by molecule DMS 114 (DMS 114 cells): ≥6.0; Average pIC50 by molecule MV-4-11 (MV-4-11 cells; 24 hours incubation): ≥7.5; Average pIC50 by molecule ARH-77 (ARH-77 cells; 24 hours incubation): <5.0
< 100,≤ 100,,"Cc1nn(C)c(C)c1-c1c(Cl)ccc2c(CCCOc3cccc4cc(F)ccc34)c(C(=O)O)n(CCN3CCN(C(=O)Cn4c(C)nc5c(C(=O)NC6CCC(=O)NC6=O)cc(N)cc54)CC3)c12 (stereo not drawn) [Compound 275, 1-{2-[4-(2-{6-Amino-4-[(2,6-dioxopiperidin-3-yl)carbamoyl]-2-methyl-1H-1,3-benzodiazol-1-yl}acetyl)piperazin-1-yl]ethyl}-6-chloro-3-{3-[(6-fluoronaphthalen-1-yl)oxy]propyl}-7-(1,3,5-trimethyl-1H-pyrazol-4-yl)-1H-indole-2-carboxylic acid]",> 10000,≤ 3160,
